Results taken from patent publication US10221163B2 (priority 2015, dated 2019).
Read-outs that look alike come from different tables or passages of the source.

Experiments:
IMP-1 = IMP-1 (Serratia marcescens, UniProt P52699); experiment: biochemical; assay type: biochemical; conditions: fluorescence assay, CCF2-FA substrate, 2 pM enzyme, 2 hours at 25° C.; read-out: IMP-1 IC50
Outline: (§1)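 Inhibitor was mixed with the metallo-β-lactamase and CCF2-FA. After 2 hours at 25° C, fluorescence of the coumarin–fluorescein cephalosporin substrate was read. IC50 was calculated with a 4-parameter fit.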

NDM-1 = NDM-1 (Klebsiella pneumoniae, UniProt C7C422); experiment: biochemical; assay type: biochemical; conditions: fluorescence assay, CCF2-FA substrate, 1 pM enzyme, 2 hours at 25° C.; read-out: NDM-1 IC50
NDM-1, sequence (C7C422 whole entry, looked up, species assumed): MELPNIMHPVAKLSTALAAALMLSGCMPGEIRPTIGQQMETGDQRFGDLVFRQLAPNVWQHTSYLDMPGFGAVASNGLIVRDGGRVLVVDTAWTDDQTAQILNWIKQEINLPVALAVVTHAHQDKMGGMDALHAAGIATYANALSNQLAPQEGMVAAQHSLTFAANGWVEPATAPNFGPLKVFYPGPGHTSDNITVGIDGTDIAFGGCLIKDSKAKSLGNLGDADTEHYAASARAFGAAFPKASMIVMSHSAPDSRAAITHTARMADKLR
Outline: as §1

VIM-1 = VIM-1 (Pseudomonas aeruginosa (strain ATCC 15692 / DSM 22644 / CIP 104116 / JCM 14847 / LMG 12228 / 1C / PRS 101 / PAO1), UniProt A0A0F7KYQ8); experiment: biochemical; conditions: CCF2-FA substrate, 30 pM enzyme, 2 hours at 25° C.
Outline: as §1

[1] = tested on: Escherichia coli expressing NDM-1 (CLB30005, CLB30016); assay type: cell-based; conditions: with imipenem 1 μg/ml; 95% inhibition of bacterial growth
Outline: (§2)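 Imipenem 1 μg/ml + inhibitor; MBL-expressing clinical strains in 1.1×CAMHB, inoculum from saline suspension diluted 1:100; 35° C, 22–24 h; absorbance read-out.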

[2] = tested on: Klebsiella pneumoniae expressing VIM-1 (IHMA599644); assay type: cell-based; conditions: with imipenem 1 μg/ml; 95% inhibition of bacterial growth
Outline: as §2

[3] = tested on: Serratia marcescens expressing IMP-1 (CL5741); assay type: cell-based; conditions: with imipenem 1 μg/ml; 95% inhibition of bacterial growth
Outline: as §2

[4] = tested on: Pseudomonas aeruginosa efflux+ (MB9798), IMP-1; assay type: cell-based; conditions: concentration restoring susceptibility to imipenem at 2 μg/mL in the presence of a class A, C, D serine β-lactamase inhibitor closely related to relebactam
Outline: (§3)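 P. aeruginosa PAO1-derived IMP-1 strains, efflux+ MB9798 and efflux− MB9799, tested by standard microbroth MIC with imipenem and/or ceftazidime fixed, usually at CLSI breakpoint, plus fixed class A/C β-lactamase inhibitor against AmpC. Inhibitor titrated; concentration restoring susceptibility recorded; MB9798/MB9799 fold difference indicates efflux.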

[5] = tested on: Pseudomonas aeruginosa efflux− (MB9799), IMP-1; assay type: cell-based; conditions: concentration restoring susceptibility to imipenem at 2 μg/mL in the presence of a class A, C, D serine β-lactamase inhibitor closely related to relebactam
Outline: as §3

[6] = tested on: Pseudomonas aeruginosa MB9798 vs MB9799; conditions: ratio MITC95 PA_9798/MITC95 PA_9799
Outline: as §3

[7] = fluorescence assay, read-out: VIM-1 IC50

IMP-1, sequence (P52699 whole entry, looked up, species assumed): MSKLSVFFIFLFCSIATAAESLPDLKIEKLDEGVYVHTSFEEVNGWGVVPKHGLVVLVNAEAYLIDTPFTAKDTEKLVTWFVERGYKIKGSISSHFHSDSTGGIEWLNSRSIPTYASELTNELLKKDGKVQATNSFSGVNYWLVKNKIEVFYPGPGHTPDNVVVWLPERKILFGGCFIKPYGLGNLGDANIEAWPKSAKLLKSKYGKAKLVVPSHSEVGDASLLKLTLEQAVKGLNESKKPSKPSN

CNS(=O)(=O)c1ccc(-c2cccc3sc(N)nc23)c(-c2nn[nH]n2)c1S(N)(=O)=O [Example 152, 4-(2-aminobezno[d]thiazol-4-yl)-N1-methyl-3-(2H-tetrazol-5-yl)benzene-1,2-disulfonamide]
IC50 (IMP-1): 0.264 nM | IC50 (NDM-1): 0.072 nM | IC50 (VIM-1; [7]): 0.195 nM | Escherichia coli expressing NDM-1 (CLB30016) MITC95 [1]: 3.125 µM | Klebsiella pneumoniae expressing VIM-1 (IHMA599644) MITC95 [2]: 6.25 µM | Serratia marcescens expressing IMP-1 (CL5741) MITC95 [3]: 3.125 µM | P. aeruginosa expressing IMP-1, efflux + (MB9798) MITC95 [4]: 12.5 µM | P. aeruginosa expressing IMP-1, efflux − (MB9799) MITC95 [5]: 1.563 µM | Efflux ratio [6]: 8.00

Nc1nc2c(-c3ccc(S(=O)(=O)NCC(=O)O)c(S(N)(=O)=O)c3-c3nn[nH]n3)cccc2s1 [Example 153, ((4-(2-aminobenzo[d]thiazol-4-yl)-2-sulfamoyl-3-(2H-tetrazol-5-yl)phenyl)sulfonyl)glycine]
IC50 (IMP-1): 0.704 nM | IC50 (NDM-1): 0.28 nM | IC50 (VIM-1; VIM-1 IC50, fluorescence assay): 1.05 nM | Escherichia coli expressing NDM-1 (CLB30016) MITC95 [1]: 50 µM | Klebsiella pneumoniae expressing VIM-1 (IHMA599644) MITC95 [2]: 100 µM | Serratia marcescens expressing IMP-1 (CL5741) MITC95 [3]: 25 µM | P. aeruginosa expressing IMP-1, efflux + (MB9798) MITC95 [4]: 12.5 µM | P. aeruginosa expressing IMP-1, efflux − (MB9799) MITC95 [5]: 12.5 µM | Efflux ratio [6]: 1.00

Nc1nc2c(-c3ccc(S(=O)(=O)NC[C@@H](N)C(=O)O)c(S(N)(=O)=O)c3-c3nn[nH]n3)cccc2s1 [Example 154, (R)-2-amino-3-((4-(2-aminobenzo[d]thiazol-4-yl)-2-sulfamoyl-3-(2H-tetrazol-5-yl)phenyl)sulfonamido)propanoic acid]
IC50 (IMP-1): 0.155 nM | IC50 (NDM-1): 0.067 nM | IC50 (VIM-1; [7]): 0.28 nM | Escherichia coli expressing NDM-1 (CLB30016) MITC95 [1]: 50 µM | Klebsiella pneumoniae expressing VIM-1 (IHMA599644) MITC95 [2]: 25 µM | Serratia marcescens expressing IMP-1 (CL5741) MITC95 [3]: 6.25 µM | P. aeruginosa expressing IMP-1, efflux + (MB9798) MITC95 [4]: 3.125 µM | P. aeruginosa expressing IMP-1, efflux − (MB9799) MITC95 [5]: 6.25 µM | Efflux ratio [6]: 0.50

Nc1ccc(-c2ccc(S(N)(=O)=O)c(S(N)(=O)=O)c2-c2nn[nH]n2)cn1 [Example 155, 4-(6-Aminopyridin-3-yl)-3-(2H-tetrazol-5-yl)benzene-1,2-disulfonamide]
IC50 (IMP-1): 0.658 nM | IC50 (NDM-1): 1.64 nM | IC50 (VIM-1; [7]): 0.804 nM | Escherichia coli expressing NDM-1 (CLB30016) MITC95 [1]: 0.0625 µM | Klebsiella pneumoniae expressing VIM-1 (IHMA599644) MITC95 [2]: 2.563 µM | Serratia marcescens expressing IMP-1 (CL5741) MITC95 [3]: 0.6406 µM | P. aeruginosa expressing IMP-1, efflux + (MB9798) MITC95 [4]: 6.25 µM | P. aeruginosa expressing IMP-1, efflux − (MB9799) MITC95 [5]: 1.281 µM | Efflux ratio [6]: 4.88

CS(=O)(=O)Nc1nc2c(-c3ccc(S(=O)(=O)N4CCNCC4)c(S(N)(=O)=O)c3-c3nn[nH]n3)cccc2s1 [Example 156, 3-(2-(Methylsulfonamido)benzo[d]thiazol-4-yl)-6-(piperazin-1-ylsulfonyl)-2-(2H-tetrazol-5-yl)benzenesulfonamide]
IC50 (IMP-1): 0.898 nM | IC50 (NDM-1): 0.29 nM | IC50 (VIM-1; [7]): 1.74 nM | Escherichia coli expressing NDM-1 (CLB30016) MITC95 [1]: 6.25 µM | Klebsiella pneumoniae expressing VIM-1 (IHMA599644) MITC95 [2]: 25 µM | Serratia marcescens expressing IMP-1 (CL5741) MITC95 [3]: 12.5 µM | P. aeruginosa expressing IMP-1, efflux + (MB9798) MITC95 [4]: 12.5 µM | P. aeruginosa expressing IMP-1, efflux − (MB9799) MITC95 [5]: 6.25 µM | Efflux ratio [6]: 2.00

Nc1nc2cccc(-c3ccc(S(=O)(=O)N4CCNCC4)c(S(N)(=O)=O)c3-c3nn[nH]n3)c2[nH]1 [Example 157, 3-(2-amino-3H-benzo[d]imidazol-4-yl)-6-(piperazin-1-ylsulfonyl)-2-(2H-tetrazol-5-yl)benzenesulfonamide]
IC50 (IMP-1): 3.09 nM | IC50 (NDM-1): 0.32 nM | IC50 (VIM-1; [7]): 0.827 nM | Escherichia coli expressing NDM-1 (CLB30016) MITC95 [1]: 0.125 µM | Klebsiella pneumoniae expressing VIM-1 (IHMA599644) MITC95 [2]: 1.281 µM | Serratia marcescens expressing IMP-1 (CL5741) MITC95 [3]: 0.8906 µM | P. aeruginosa expressing IMP-1, efflux + (MB9798) MITC95 [4]: 1.781 µM | P. aeruginosa expressing IMP-1, efflux − (MB9799) MITC95 [5]: 0.4453 µM | Efflux ratio [6]: 4.00

Cn1c(N)nc2c(-c3ccc(S(=O)(=O)N4CCNCC4)c(S(N)(=O)=O)c3-c3nn[nH]n3)cccc21 [Example 158, 3-(2-amino-1-methyl-1H-benzo[d]imidazol-4-yl)-6-(piperazin-1-ylsulfonyl)-2-(2H-tetrazol-5-yl)benzenesulfonamide]
IC50 (IMP-1): 1.71 nM | IC50 (NDM-1): 0.601 nM | IC50 (VIM-1; VIM-1 IC50, fluorescence assay): 1.27 nM | Escherichia coli expressing NDM-1 (CLB30016) MITC95 [1]: 0.25 µM | Klebsiella pneumoniae expressing VIM-1 (IHMA599644) MITC95 [2]: 1.781 µM | Serratia marcescens expressing IMP-1 (CL5741) MITC95 [3]: 0.8906 µM | P. aeruginosa expressing IMP-1, efflux + (MB9798) MITC95 [4]: 3.125 µM | P. aeruginosa expressing IMP-1, efflux − (MB9799) MITC95 [5]: 0.8906 µM | Efflux ratio [6]: 3.51

Nc1nc2c(-c3ccc(S(=O)(=O)N4CCNCC4)c(S(N)(=O)=O)c3-c3nn[nH]n3)cccc2o1 [Example 159, 3-(2-aminobenzo[d]oxazol-4-yl)-6-(piperazin-1-ylsulfonyl)-2-(2H-tetrazol-5-yl)benzenesulfonamide]
IC50 (IMP-1): 1.29 nM | IC50 (NDM-1): 0.195 nM | IC50 (VIM-1; [7]): 0.51 nM | Escherichia coli expressing NDM-1 (CLB30016) MITC95 [1]: 1.563 µM | Klebsiella pneumoniae expressing VIM-1 (IHMA599644) MITC95 [2]: 3.125 µM | Serratia marcescens expressing IMP-1 (CL5741) MITC95 [3]: 1.563 µM | P. aeruginosa expressing IMP-1, efflux + (MB9798) MITC95 [4]: 3.125 µM | P. aeruginosa expressing IMP-1, efflux − (MB9799) MITC95 [5]: 1.563 µM | Efflux ratio [6]: 2.00

NS(=O)(=O)c1c(S(=O)(=O)N2CCNCC2)ccc(-c2cccc3cn[nH]c23)c1-c1nnn[nH]1 [Example 160, 3-(1H-indazol-7-yl)-6-(piperazin-1-ylsulfonyl)-2-(1H-tetrazol-5-yl)benzenesulfonamide]
IC50 (IMP-1): 1.39 nM | IC50 (NDM-1): 0.599 nM | IC50 (VIM-1; [7]): 1.07 nM | Escherichia coli expressing NDM-1 (CLB30016) MITC95 [1]: 3.125 µM | Klebsiella pneumoniae expressing VIM-1 (IHMA599644) MITC95 [2]: 3.125 µM | Serratia marcescens expressing IMP-1 (CL5741) MITC95 [3]: 1.563 µM | P. aeruginosa expressing IMP-1, efflux + (MB9798) MITC95 [4]: 6.25 µM | P. aeruginosa expressing IMP-1, efflux − (MB9799) MITC95 [5]: 1.563 µM | Efflux ratio [6]: 4.00

Nc1nc2c(-c3ccc(S(=O)(=O)N[C@@H]4CCNC4)c(S(N)(=O)=O)c3-c3nn[nH]n3)cccc2[nH]1 [Example 161, 4-(2-amino-1H-benzo[d]imidazol-4-yl)-N^1—((R)-pyrrolidin-3-yl)-3-(2H-tetrazol-5-yl)benzene-1,2-disulfonamide]
IC50 (IMP-1): 0.401 nM | IC50 (NDM-1): 0.0314 nM | IC50 (VIM-1; [7]): 0.106 nM | Escherichia coli expressing NDM-1 (CLB30016) MITC95 [1]: 0.2995 µM | Klebsiella pneumoniae expressing VIM-1 (IHMA599644) MITC95 [2]: 0.8542 µM | Serratia marcescens expressing IMP-1 (CL5741) MITC95 [3]: 0.5295 µM | P. aeruginosa expressing IMP-1, efflux + (MB9798) MITC95 [4]: 0.3993 µM | P. aeruginosa expressing IMP-1, efflux − (MB9799) MITC95 [5]: 0.5139 µM | Efflux ratio [6]: 0.78

Nc1nc2c(-c3ccc(S(=O)(=O)N[C@H]4CCNC4)c(S(N)(=O)=O)c3-c3nn[nH]n3)cccc2[nH]1 [Example 162, 4-(2-amino-1H-benzo[d]imidazol-4-yl)-N^1-((S)-pyrrolidin-3-yl)-3-(2H-tetrazol-5-yl)benzene-1,2-disulfonamide]
IC50 (IMP-1): 0.733 nM | IC50 (NDM-1): 0.0607 nM | IC50 (VIM-1; [7]): 0.154 nM | Escherichia coli expressing NDM-1 (CLB30016) MITC95 [1]: 0.3203 µM | Klebsiella pneumoniae expressing VIM-1 (IHMA599644) MITC95 [2]: 0.9844 µM | Serratia marcescens expressing IMP-1 (CL5741) MITC95 [3]: 0.5573 µM | P. aeruginosa expressing IMP-1, efflux + (MB9798) MITC95 [4]: 0.4271 µM | P. aeruginosa expressing IMP-1, efflux − (MB9799) MITC95 [5]: 0.4922 µM | Efflux ratio [6]: 0.87

Cn1c(N)nc2c(-c3ccc(S(=O)(=O)N[C@H]4CCNC4)c(S(N)(=O)=O)c3-c3nn[nH]n3)cccc21 [Example 163, 4-(2-amino-1-methyl-1H-benzo[d]imidazol-4-yl)-N^1-((S)-pyrrolidin-3-yl)-3-(2H-tetrazol-5-yl)benzene-1,2-disulfonamide]
IC50 (IMP-1): 0.45 nM | IC50 (NDM-1): 0.0605 nM | IC50 (VIM-1; [7]): 0.118 nM | Escherichia coli expressing NDM-1 (CLB30016) MITC95 [1]: 0.3906 µM | Klebsiella pneumoniae expressing VIM-1 (IHMA599644) MITC95 [2]: 0.7813 µM | Serratia marcescens expressing IMP-1 (CL5741) MITC95 [3]: 0.7813 µM | P. aeruginosa expressing IMP-1, efflux + (MB9798) MITC95 [4]: 0.7813 µM | P. aeruginosa expressing IMP-1, efflux − (MB9799) MITC95 [5]: 0.7813 µM | Efflux ratio [6]: 1.00
